According to publication PMC11576293, “New series of 4,6-diaryl pyrimidines: facile synthesis and antiproliferative activity as dual EGFR/VEGFR-2 inhibitors” (Frontiers in Chemistry, 2024):

Experiments:
Assay in all cases: NCI-60 single-dose screen
Assay type in all cases: cell-based
[1] = tested on: T-47D; settings: Homo sapiens, T47D, single dose 10 µM, '-' = no inhibition, read-out: % Growth Inhibition
Method: (§1) The National Cancer Institute’s Developmental Therapeutic Program (www.dtp.nci.nih.gov) has tested compounds 9–29 (except compounds 21 and 22) against 60 cancer cell lines from nine types (leukemia, lung, colon, CNS, melanoma, ovarian, renal, prostate, and breast cancer) at a single dose (10 μM) ([El-Sherief et al., 2018]). […] The most sensitive cells included leukemia (SR, K-562, and MOLT-4), lung (NCI-H522, […], and EKVX), breast (MCF-7 and T-47D), colon (HCT-15 and HT-29), and ovarian (NCI/ADR-RES).
(§2) The National Cancer Institute’s Developmental Therapeutic Program (www.dtp.nci.nih.gov) evaluated compounds 9–29 (excluding 21 and 22) against 60 cancer cell lines from nine categories (leukemia, lung, colon, CNS, melanoma, ovarian, renal, prostate, and breast cancer) at a single dose (10 μM) ([El-Sherief et al., 2018]). See Supplementary Material A1 for more details.

[2] = tested on: OVCAR-5; settings: Homo sapiens, single dose 10 µM, '-' = no inhibition, read-out: % Growth Inhibition
Method: as §1, §2

[3] = tested on: NCI-H460; settings: Homo sapiens, single dose 10 µM, '-' = no inhibition, read-out: % Growth Inhibition
Method: as §1, §2

[4] = tested on: DU-145; settings: Homo sapiens, single dose 10 µM, '-' = no inhibition, read-out: % Growth Inhibition
Method: as §1, §2

[5] = tested on: MDA-MB-468; settings: Homo sapiens, single dose 10 µM, '-' = no inhibition, read-out: % Growth Inhibition
Method: as §1, §2

[6] = tested on: U251; settings: Homo sapiens, U-251, single dose 10 µM, '-' = no inhibition, read-out: % Growth Inhibition
Method: as §1, §2

[7] = tested on: SK-MEL-2; settings: Homo sapiens, single dose 10 µM, '-' = no inhibition, read-out: % Growth Inhibition
Method: as §1, §2

[8] = tested on: M14; settings: Homo sapiens, single dose 10 µM, '-' = no inhibition, read-out: % Growth Inhibition
Method: as §1, §2

[9] = tested on: OVCAR-4; settings: Homo sapiens, single dose 10 µM, '-' = no inhibition, read-out: % Growth Inhibition
Method: as §1, §2

[10] = tested on: SW-620; settings: Homo sapiens, single dose 10 µM, '-' = no inhibition, read-out: % Growth Inhibition
Method: as §1, §2

[11] = tested on: HOP-62; settings: Homo sapiens, single dose 10 µM, '-' = no inhibition, read-out: % Growth Inhibition
Method: as §1, §2

[12] = tested on: BT-549; settings: Homo sapiens, single dose 10 µM, '-' = no inhibition, read-out: % Growth Inhibition
Method: as §1, §2

[13] = tested on: EKVX; settings: Homo sapiens, single dose 10 µM, '-' = no inhibition, read-out: % Growth Inhibition
Method: as §1, §2

[14] = tested on: HCT-116; settings: Homo sapiens, single dose 10 µM, '-' = no inhibition, read-out: % Growth Inhibition
Method: as §1, §2

[15] = tested on: A549/ATCC; settings: Homo sapiens, single dose 10 µM, '-' = no inhibition, read-out: % Growth Inhibition
Method: as §1, §2

[16] = tested on: 786-0; settings: Homo sapiens, single dose 10 µM, '-' = no inhibition, read-out: % Growth Inhibition
Method: as §1, §2

[17] = tested on: SK-MEL-28; settings: Homo sapiens, single dose 10 µM, '-' = no inhibition, read-out: % Growth Inhibition
Method: as §1, §2

[18] = tested on: HCC-2998; settings: Homo sapiens, single dose 10 µM, '-' = no inhibition, read-out: % Growth Inhibition
Method: as §1, §2

[19] = tested on: A498; settings: Homo sapiens, single dose 10 µM, '-' = no inhibition, read-out: % Growth Inhibition
Method: as §1, §2

[20] = tested on: CCRF-CEM; settings: Homo sapiens, single dose 10 µM, '-' = no inhibition, read-out: % Growth Inhibition
Method: as §1, §2

[21] = tested on: K-562; settings: Homo sapiens, K562, single dose 10 µM, '-' = no inhibition, read-out: % Growth Inhibition
Method: as §1, §2

[22] = tested on: SNB-75; settings: Homo sapiens, single dose 10 µM, '-' = no inhibition, read-out: % Growth Inhibition
Method: as §1, §2

[23] = tested on: UACC-257; settings: Homo sapiens, single dose 10 µM, '-' = no inhibition, read-out: % Growth Inhibition
Method: as §1, §2

[24] = tested on: RPMI-8226; settings: Homo sapiens, single dose 10 µM, '-' = no inhibition, read-out: % Growth Inhibition
Method: as §1, §2

[25] = tested on: RXF 393; settings: Homo sapiens, single dose 10 µM, '-' = no inhibition, read-out: % Growth Inhibition
Method: as §1, §2

[26] = tested on: SF-295; settings: Homo sapiens, single dose 10 µM, '-' = no inhibition, read-out: % Growth Inhibition
Method: as §1, §2

[27] = tested on: HT29; settings: Homo sapiens, HT-29, single dose 10 µM, '-' = no inhibition, read-out: % Growth Inhibition
Method: as §1, §2

[28] = tested on: COLO 205; settings: Homo sapiens, single dose 10 µM, '-' = no inhibition, read-out: % Growth Inhibition
Method: as §1, §2

[29] = tested on: IGROV1; settings: Homo sapiens, IGROV-1, single dose 10 µM, '-' = no inhibition, read-out: % Growth Inhibition
Method: as §1, §2

[30] = tested on: SF-539; settings: Homo sapiens, single dose 10 µM, '-' = no inhibition, read-out: % Growth Inhibition
Method: as §1, §2

[31] = tested on: NCI-H23; settings: Homo sapiens, single dose 10 µM, '-' = no inhibition, read-out: % Growth Inhibition
Method: as §1, §2

[32] = tested on: ACHN 1; settings: Homo sapiens, single dose 10 µM, '-' = no inhibition, read-out: % Growth Inhibition
Method: as §1, §2

[33] = tested on: HS 578T; settings: Homo sapiens, single dose 10 µM, '-' = no inhibition, read-out: % Growth Inhibition
Method: as §1, §2

[34] = tested on: SN12C; settings: Homo sapiens, single dose 10 µM, '-' = no inhibition, read-out: % Growth Inhibition
Method: as §1, §2

[35] = tested on: SK-MEL-5; settings: Homo sapiens, single dose 10 µM, '-' = no inhibition, read-out: % Growth Inhibition
Method: as §1, §2

[36] = tested on: NCI-H322M; settings: Homo sapiens, single dose 10 µM, '-' = no inhibition, read-out: % Growth Inhibition
Method: as §1, §2

[37] = tested on: SR; settings: Homo sapiens, single dose 10 µM, '-' = no inhibition, read-out: % Growth Inhibition
Method: as §1, §2

[38] = tested on: HL-60(TB); settings: Homo sapiens, single dose 10 µM, '-' = no inhibition, read-out: % Growth Inhibition
Method: as §1, §2

[39] = tested on: PC-3; settings: Homo sapiens, single dose 10 µM, '-' = no inhibition, read-out: % Growth Inhibition
Method: as §1, §2

[40] = tested on: MDA-MB-435; settings: Homo sapiens, single dose 10 µM, '-' = no inhibition, read-out: % Growth Inhibition
Method: as §1, §2

[41] = tested on: MALME-3M; settings: Homo sapiens, single dose 10 µM, '-' = no inhibition, read-out: % Growth Inhibition
Method: as §1, §2

[42] = tested on: OVCAR-8; settings: Homo sapiens, single dose 10 µM, '-' = no inhibition, read-out: % Growth Inhibition
Method: as §1, §2

[43] = tested on: SK-OV-3; settings: Homo sapiens, single dose 10 µM, '-' = no inhibition, read-out: % Growth Inhibition
Method: as §1, §2

[44] = tested on: HOP-92; settings: Homo sapiens, single dose 10 µM, '-' = no inhibition, read-out: % Growth Inhibition
Method: as §1, §2

[45] = tested on: SF-268; settings: Homo sapiens, single dose 10 µM, '-' = no inhibition, read-out: % Growth Inhibition
Method: as §1, §2

[46] = tested on: MCF7; settings: Homo sapiens, single dose 10 µM, '-' = no inhibition, read-out: % Growth Inhibition
Method: as §1, §2

[47] = tested on: TK-10; settings: Homo sapiens, single dose 10 µM, '-' = no inhibition, read-out: % Growth Inhibition
Method: as §1, §2

[48] = tested on: KM12; settings: Homo sapiens, single dose 10 µM, '-' = no inhibition, read-out: % Growth Inhibition
Method: as §1, §2

With `COc1ccc(-c2cc(-c3ccc(Cl)cc3)nc(SCc3ccccc3)n2)cc1` [Compound 14, 2-(Benzylthio)-4-(4-chlorophenyl)-6-(4-methoxyphenyl)pyrimidine] the inhibition at 10 µM [1] was 14.4%, the inhibition at 10 µM [2] was 2.5% and the inhibition at 10 µM [3] was less than 0%. The inhibition at 10 µM [4] was 1.74%, the inhibition at 10 µM [5] was less than 0% and the inhibition at 10 µM [6] was less than 0%. It also gave an inhibition at 10 µM [7] of 7.79%, an inhibition at 10 µM [8] of less than 0% and an inhibition at 10 µM [9] of less than 0%. It also gave an inhibition at 10 µM [10] of less than 0%, an inhibition at 10 µM [11] of less than 0% and an inhibition at 10 µM [12] of less than 0%. It also gave an inhibition at 10 µM [13] of 2.76%, an inhibition at 10 µM [14] of less than 0% and an inhibition at 10 µM [15] of 2.08%. It also gave an inhibition at 10 µM [16] of less than 0%, an inhibition at 10 µM [17] of less than 0% and an inhibition at 10 µM [18] of less than 0%. For the same compound, the inhibition at 10 µM [19] was less than 0%, the inhibition at 10 µM [20] was less than 0% and the inhibition at 10 µM [21] was 11.7%. It also gave an inhibition at 10 µM [22] of less than 0%, an inhibition at 10 µM [23] of less than 0% and an inhibition at 10 µM [24] of less than 0%. The inhibition at 10 µM [25] was less than 0%, the inhibition at 10 µM [26] was less than 0% and the inhibition at 10 µM [27] was 8.96%. The inhibition at 10 µM [28] was 10.3%, the inhibition at 10 µM [29] was less than 0% and the inhibition at 10 µM [30] was less than 0%. For the same compound, the inhibition at 10 µM [31] was less than 0%, the inhibition at 10 µM [32] was 11% and the inhibition at 10 µM [33] was less than 0%. The inhibition at 10 µM [34] was 10.4%, the inhibition at 10 µM [35] was 2.06% and the inhibition at 10 µM [36] was less than 0%. The inhibition at 10 µM [37] was 10.2%, the inhibition at 10 µM [38] was 18.1% and the inhibition at 10 µM [39] was 20.7%. For the same compound, the inhibition at 10 µM [40] was 3.68%, the inhibition at 10 µM [41] was less than 0% and the inhibition at 10 µM [42] was less than 0%. The inhibition at 10 µM [43] was less than 0%, the inhibition at 10 µM [44] was less than 0% and the inhibition at 10 µM [45] was less than 0%. The inhibition at 10 µM [46] was less than 0%, the inhibition at 10 µM [47] was less than 0% and the inhibition at 10 µM [48] was less than 0%.
